# Measurements taken from the METLIN SMRT retention time set (Domingo-Almenara et al. 2019).
# Test: gradient 5% acetonitrile 3 min, to 50% in 2 min, to 85% in 15 min, held 3 min, 100 µL/min
# Conditions: column: Zorbax Extend-C18 2.1 x 50 mm; eluents: water / acetonitrile, 0.1% formic acid
# Summary of the method: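 In both positive and negative ionization mode, a quadrupole time-of-flight mass spectrometer coupled to HPLC analyzed pure standards run in mixtures of ~100 molecules. The Zorbax Extend-C18 column (2.1 × 50 mm, 1.8 μm) was operated at 100 μL/min with water and acetonitrile, each containing 0.1% formic acid. The dead volume was 40 μL and the dwell volume 900 μL. Retention time came from adduct peaks that were computationally picked and individually inspected by hand.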
row,RP-LC retention time,Compound
1,681 s,CC(C)(C)NC(=O)CCc1c(-c2ccc(Br)cc2)nc2ccccn12
2,908 s,CCCCOc1ccc(C(=O)Nc2cc(C)no2)cc1
3,836 s,Cc1ccc(F)cc1S(=O)(=O)N(C)CC1CCOC1 (stereo not drawn)
4,612 s,O=C(CSc1ccc(N2CCCC(C(=O)NC3CC3)C2)nn1)Nc1ccc2c(c1)OCO2 (stereo not drawn)
5,834 s,COc1cc(/C=C2\CCCN([C@@H](C)c3ccc(F)cc3)C2=O)ccc1-n1cnc(C)c1
6,665 s,CCn1c(N2CCCC(C(=O)NCCCOC)C2)cc(=O)n(C)c1=O (stereo not drawn)
7,616 s,CCc1cc(C(=O)N2CCN(CC)CC2)nc2cc(-c3ccco3)nn12
8,992 s,Cc1nc(-c2ccc3c(c2)CCN3C(=O)c2cccc(F)c2)cs1
9,795 s,CC(=O)Nc1ccc(C2(C(=O)NCc3ccc(F)c(Cl)c3)CCC2)cc1
10,1110 s,Cc1cccc(Cn2nc(-c3nc(C(C)(C)C)no3)ccc2=O)c1
11,1040 s,CCOC(=O)c1oc2ccccc2c1NC(=O)c1ccc([N+](=O)[O-])s1
12,666 s,Cc1ccc(CS(=O)(=O)N2CCC(C3CCNC3)CC2)cc1C (stereo not drawn)
13,625 s,CC1CCN(c2ncc3c(n2)CCC(C(=O)NCc2nc4ccccc4n2C)C3)CC1 (stereo not drawn)
14,963 s,COc1ccccc1N1CCN(C(=O)c2sc3ncccc3c2-n2cccc2)CC1
15,934 s,CC(C)(C)CC(=O)N1CCc2nc(-c3ccccc3)ncc2C1
16,607 s,N#Cc1ccccc1CN1CCC(N2CC(OCC3CC3)C23CCCCC3)CC1 (stereo not drawn)
17,668 s,CC1=C(C(=O)OCCC#N)C(c2ccccc2Cl)NC(=O)N1 (stereo not drawn)
18,768 s,c1ccc(-c2noc(-c3ccc(N4CCN(c5ccccn5)CC4)nc3)n2)cc1
19,719 s,CCCNc1cc(N2CCCC(CCC(=O)N3CCN(c4ccccc4)CC3)C2)ncn1 (stereo not drawn)
20,779 s,CS(=O)(=O)N1CCC(C(=O)N2CCC(Oc3nc4ccc(F)cc4s3)CC2)CC1
21,958 s,CCOc1ccc(NC(=O)c2noc3c2CCCC3)cc1
22,828 s,O=C(C1CC(=O)N(c2ccccc2)C1)N1CCSCC1 (stereo not drawn)

# The remaining lines, values behind:
row,Compound,RP-LC retention time
1,Cc1ccc2c(c1)C(C)(C)C(=O)N2CC(=O)N1CCN(c2ncccn2)CC1,773 s
2,COc1ccc(-c2ncc3c(n2)CCN(S(=O)(=O)c2ccccc2C)C3)cc1,1070 s
3,Cn1c(CCN2C(=O)C3(CCOCC3)CC2c2nnnn2C(C)(C)C)nc2ccccc21 (stereo not drawn),578 s
4,CCOC(=O)CN1CC2=C(C1=O)C(c1ccc(OC)cc1)NC(=O)N2 (stereo not drawn),618 s
5,Cc1ccccc1C(=O)Nc1ccc2c(c1)Sc1ncccc1C(=O)N2C(C)C,872 s
6,O=C(Cn1nc2c(c1NC(=O)Cc1noc3ccccc13)CSC2)NCC1CCCO1 (stereo not drawn),853 s
7,O=C(Cc1ccc(F)cc1)N(CC1CCOC1)C1CC1 (stereo not drawn),794 s
8,CCCNc1cc(N2CCC(CCC(=O)NCc3ccc(Cl)cc3)CC2)ncn1,718 s
9,Cc1sc2ccn(CC(C)C)c(=O)c2c1C(=O)NCCN1CCCCC1,639 s
10,O=C(Cn1c(=O)c2nncn2c2ncccc21)NCc1ccc(Cl)cc1,671 s
11,CCCn1c(=O)sc2cc(S(=O)(=O)N3CCC(C(=O)NCc4ccccc4)CC3)ccc21,932 s
12,COc1cc2c(cc1OC)[C@@H](C(=O)N(C)c1ccc(Cl)cc1)[C@@H]1CCCCN1C2=O,719 s
13,CCOc1ccc(-c2nc(-c3ccc4c(c3)oc(=O)n4C(C)C)no2)cc1,1230 s
14,O=C(CSc1nnc(CCc2nc3ccccc3[nH]2)o1)NCCc1ccc(Cl)cc1,601 s
15,CC1=C(c2ccccc2)S(=O)(=O)N=C1N1CCCN(C(=O)c2ccc(F)c(F)c2)CC1,900 s
16,CCN(CC)CCNC(=O)Cn1c2ccccc2c2cnn(C)c(=O)c21,599 s
17,Cc1nn(CCCC(=O)NCc2ccc3c(c2)OCO3)c(=O)c2nn(-c3ccccc3)c(C)c12,704 s
18,COc1ccc(N2CCN(C(=O)CN3CCN(Cc4cccc(Cl)c4)C3=O)CC2)cc1,784 s
19,Cc1cc(=O)n(CC(=O)N(C)C2CCCCC2)c(N2CCOCC2)n1,656 s
20,CCCCN(C)S(=O)(=O)c1cc(-c2nnc(C3CCCC3)o2)co1,1060 s
21,CCOC(=O)c1ccccc1NC(=O)Cn1cnc2c(sc3nc(-c4ccccc4)ccc32)c1=O,1200 s
22,CCC(=O)NCc1nc2c(n1CC)CN(C(=O)c1ccc(C(F)(F)F)s1)CC2,579 s
23,Cc1cc(F)ccc1NC(=O)Cn1nc2cc(-c3ccccc3)nc(C)n2c1=O,909 s

row,Compound,RP-LC retention time
1,NC(=O)C1CCN(C(=O)C2CCN(S(=O)(=O)Cc3ccc(Cl)cc3)CC2)CC1,678 s
2,Cc1nnc(-c2ccc3ccn(CC(=O)NCCCc4ccccc4)c3c2)o1,807 s
3,COc1ccc(C(O)CN2CCN(c3ccccn3)CC2)cc1 (stereo not drawn),540 s
4,CCOC(=O)Nc1c2ccccc2nc2ccccc12,660 s
5,COc1cccc(NC(=O)Cn2cccc2-c2nnc(-c3ccccc3)o2)c1,940 s
6,COc1ccc(-c2csc3c(=O)n(CC(=O)N4CCCC4)cnc23)cc1,760 s
7,COc1cccc(C2CC(c3ccc(Cl)cc3)=NC3(CCN(C)CC3)N2)c1O (stereo not drawn),606 s
8,Cn1c(C2CCCN(S(C)(=O)=O)C2)nn(CC(=O)NC2CCCCC2)c1=O (stereo not drawn),606 s
9,COc1ccc(CN2C=C(C(=O)OCc3c(C)noc3C)C(C)=NS2(=O)=O)cc1,934 s
10,COC(=O)c1ccc(NC(=O)N2CC(C)Oc3ccc(C)cc32)cc1 (stereo not drawn),1220 s
11,COc1ccccc1-n1ncc2c(C(C)C)nnc(SCC(=O)NCc3ccco3)c21,729 s
12,Cc1nc(-c2cccc(NC(=O)Cc3csc(Nc4ncccn4)n3)c2)cs1,731 s
13,CCN1C(=O)COc2ccc(-c3noc(-c4cccc(Cl)c4)n3)cc21,1250 s
14,Cc1cc(OCC(=O)Nc2cccc(Br)c2)nc(N2CCCC2)n1,682 s
15,COc1cccc(COc2cn(C)c(C(=O)N3CCN(c4ncccn4)CC3)cc2=O)c1,605 s
16,O=C(c1ccc(Cn2cncn2)cc1)N1CCN(c2ccccc2F)CC1,712 s
17,Nc1nc(N2CCN(c3ccccc3F)CC2)ncc1C(=O)Nc1ccccc1,821 s
18,CC1CCc2nc(NC(=O)CSc3nnc(-c4ccccc4)o3)sc2C1 (stereo not drawn),989 s
19,CC(C)c1ccc(S(=O)(=O)N2CCC3(CCN(c4cccnc4)C3)C2)cc1 (stereo not drawn),736 s
20,Cc1ccc(C)c(S(=O)(=O)N2CCCN(c3ccc(=O)n(-c4ccccc4)n3)CC2)c1,947 s
21,CCCCCCOc1ccccc1C(N)=O,1040 s
22,Cc1cc(C)c2c(N)c(C(=O)c3ccccn3)sc2n1,739 s
23,Cn1c(=O)c(N2CCN(C(=O)c3ccccc3F)CC2)nc2ccccc21,864 s
